Data published in patent publication US20250025443A1, “COMPOUNDS AND METHODS FOR TREATING CORONA VIRUSES” (CLEAR CREEK BIO, INC., priority 2021, published 2025).
pIC50: −log10 of the molar value. Like-named read-outs stand apart in the source and are kept apart here.

Target: SARS-CoV-2 Papain-Like Protease (PLpro) (Severe acute respiratory syndrome coronavirus 2 (2019-nCoV) (SARS-CoV-2), UniProt P0DTD1)
Test: biochemical
Conditions: read-out: PLpro IC50
[1] = PLpro enzymatic fluorescence assay, class symbols
[2] = SARS-CoV-2 PLpro enzymatic fluorescence assay

| SMILES | pIC50 [1] | pIC50 [2] |
| --- | --- | --- |
| COc1cc(C2(NC(=O)c3cc(OC[C@H]4C[C@H](F)CN4)ccc3C)CC2)c2ccccc2c1 [Compound 510, 5-(((2R,4S)-4-Fluoropyrrolidin-2-yl)methoxy)-N-(1-(3-methoxynaphthalen-1-yl)cyclopropyl)-2-methylbenzamide] | > 7.00 | – |
| Cc1cc2nc(CN)[nH]c2cc1C(=O)NC1(c2cccc3ccccc23)CC1 [Compound 280, 2-(Aminomethyl)-5-methyl-N-(1-(naphthalen-1-yl)cyclopropyl)-1H-benzo[d]imidazole-6-carboxamide] | – | 6.00 to 7.00 |
| Cc1ccc(OCCN(C)C)cc1C(=O)NC1(c2cccc(O)c2)CC1 [Compound 306, 5-(2-(Dimethylamino)ethoxy)-N-(1-(3-hydroxyphenyl)cyclopropyl)-2-methylbenzamide] | < 5.30 | – |
| Cc1ccc(OC[C@@H]2CCN2C)cc1C(=O)NC1(c2cc(N(C)CC(F)(F)F)cc3ncccc23)CC1 [Compound 781, (S)-2-Methyl-N-(1-(7-(methyl(2,2,2-trifluoroethyl)amino)quinolin-5-yl)cyclopropyl)-5-((1-methylazetidin-2-yl)methoxy)benzamide] | > 7.00 | – |
| Cc1cc(C2(NC(=O)c3cc(OCC(C)N)ccc3C)CC2)c2ccccc2c1 (stereo not drawn) [Compound 481, 5-(2-Aminopropoxy)-2-methyl-N-(1-(3-methylnaphthalen-1-yl)cyclopropyl)benzamide] | – | > 7.00 |
| Cc1cnc(OCCN(C)C)nc1C(=O)NC1(c2cccc3ccccc23)CC1 [Compound 350, 2-(2-(Dimethylamino)ethoxy)-5-methyl-N-(1-(naphthalen-1-yl)cyclopropyl)pyrimidine-4-carboxamide] | – | 5.30 to 6.00 |
| COc1cc(C2(NC(=O)c3cc(OC[C@@H]4CCN4C)ccc3C)COC2)c2ccccc2c1 [Compound 566] | > 7.00 | – |
| Cc1ccc(OC[C@@H]2CCN2C)cc1C(=O)NC1(c2cc(O)nc3ccccc23)CC1 [Compound 565, (S)-N-(1-(2-Hydroxyquinolin-4-yl)cyclopropyl)-2-methyl-5-((1-methylazetidin-2-yl)methoxy)benzamide] | – | > 7.00 |
| Cc1ccc2c(C3(NC(=O)c4cc(OC[C@@H]5CCN5C)ccc4C)CC3)cc(N(C)S(C)(=O)=O)cc2n1 [Compound 819, (S)-2-Methyl-N-(1-(2-methyl-7-(N-methylmethylsulfonamido)quinolin-5-yl)cyclopropyl)-5-((1-methylazetidin-2-yl)methoxy)benzamide] | > 7.00 | – |
| C=Cc1cc(C2(NC(=O)c3cc(OC[C@@H]4CCN4C)c(N)cc3C)CC2)c2cccnc2c1 [Compound 726, (S)-4-Amino-2-methyl-5-((1-methylazetidin-2-yl)methoxy)-N-(1-(7-vinylquinolin-5-yl)cyclopropyl)benzamide] | – | > 7.00 |
| COc1cc(C2(NC(=O)c3cc(OC[C@H]4CCN4)ccc3C)CC2)c2cccnc2c1 [Compound 554, (R)-5-(Azetidin-2-ylmethoxy)-N-(1-(7-methoxyquinolin-5-yl)cyclopropyl)-2-methylbenzamide] | > 7.00 | – |
| Cc1ccc(N)cc1S(=O)(=O)N[C@H](C)c1cccc2ccccc12 [Compound 138, (R)-5-Amino-2-methyl-N-(1-(naphthalen-1-yl)ethyl)benzenesulfonamide] | – | < 5.30 |
| CC(c1cccc2ccccc12)N1CCc2ccc(NC(=O)Cc3ccccc3)cc2C1 (stereo not drawn) [Compound 139, N-(2-(1-(Naphthalen-1-yl)ethyl)-1,2,3,4-tetrahydroisoquinolin-7-yl)-2-phenylacetamide] | – | < 5.30 |
| Cc1ccc(OCC2CCN2C)cc1C(=O)NC1(c2cc(O)cc3ccccc23)CC1 (stereo not drawn) [Compound 433, N-(1-(3-Hydroxynaphthalen-1-yl)cyclopropyl)-2-methyl-5-((1-methylazetidin-2-yl)methoxy)benzamide] | – | > 7.00 |
| Cc1ccc(OC[C@H]2C[C@H](O)CN2C)cc1C(=O)NC1(c2cccc3ccccc23)CC1 (single isomer, unassigned) [Compound 439] | – | > 7.00 |
| Cc1ccc(OC[C@@H]2CCN2C)cc1C(=O)NC1(c2cc(Cl)nc3cc(F)ccc23)CC1 [Compound 586, (S)-N-(1-(2-Chloro-7-fluoroquinolin-4-yl)cyclopropyl)-2-methyl-5-((1-methylazetidin-2-yl)methoxy)benzamide] | – | > 7.00 |
| Cc1ccc(OCC2(C)CCN2C)cc1C(=O)NC1(c2cccc3ccccc23)CC1 (stereo not drawn) [Compound 404, 5-((1,2-Dimethylazetidin-2-yl)methoxy)-2-methyl-N-(1-(naphthalen-1-yl)cyclopropyl)benzamide] | – | > 7.00 |
| Cc1ccc(OC[C@@H]2CCN2C)cc1C(=O)NC1(c2cc(-c3ccc(C(=O)N4CCCC4)s3)cc3ncccc23)CC1 [Compound 767, (S)-2-Methyl-5-((1-methylazetidin-2-yl)methoxy)-N-(1-(7-(5-(pyrrolidine-1-carbonyl)thiophen-2-yl)quinolin-5-yl)cyclopropyl)benzamide] | < 5.30 | – |
| Cc1cc(C)c(C(=O)NC2(c3cccc4ccccc34)CC2)cc1OCCN(C)C [Compound 405, 5-(2-(Dimethylamino)ethoxy)-2,4-dimethyl-N-(1-(naphthalen-1-yl)cyclopropyl)benzamide] | – | > 7.00 |
| Cc1cc2cc(CN)[nH]c2cc1C(=O)NC1(c2cccc(Br)c2)CC1 [Compound 232, 2-(Aminomethyl)-N-(1-(3-bromophenyl)cyclopropyl)-5-methyl-1H-indole-6-carboxamide] | – | 5.30 to 6.00 |

| SMILES | pIC50 [1] | pIC50 [2] |
| --- | --- | --- |
| CN(C)CCOc1ccc(Br)c(C(=O)NC2(c3cccc4ccccc34)CC2)c1 [Compound 269, 2-Bromo-5-(2-(dimethylamino)ethoxy)-N-(1-(naphthalen-1-yl)cyclopropyl)benzamide] | – | 6.00 to 7.00 |
| COc1cc(C2(NC(=O)c3cc(OCC4CCN4C)ccc3C)COC2)c2ccccc2c1 (stereo not drawn) [Compound 450, N-(3-(3-Methoxynaphthalen-1-yl)oxetan-3-yl)-2-methyl-5-((1-methylazetidin-2-yl)methoxy)benzamide] | – | > 7.00 |
| Cc1cc2c(cc1C(=O)NC1(c3cccc4ccccc34)CC1)NC(=O)C2(C)C [Compound 243, 3,3,5-Trimethyl-N-(1-(naphthalen-1-yl)cyclopropyl)-2-oxoindoline-6-carboxamide] | – | 5.30 to 6.00 |
| Cc1ccc(OC2CN(Cc3ccccc3)C(C)(C)C2)cc1C(=O)NC1(c2cccc3ccccc23)CC1 (stereo not drawn) [Compound 491, 5-((1-benzyl-5,5-dimethylpyrrolidin-3-yl)oxy)-2-methyl-N-(1-(naphthalen-1-yl)cyclopropyl)benzamide] | – | 6.00 to 7.00 |
| CNCCOc1ccc(C)c(C(=O)NC2(c3cc(-c4cccs4)cc4ncccc34)CC2)c1 [Compound 630, 2-Methyl-5-(2-(methylamino)ethoxy)-N-(1-(7-(thiophen-2-yl)quinolin-5-yl)cyclopropyl)benzamide] | > 7.00 | – |
| Cc1ccc(OC[C@@H]2CCN2)cc1C(=O)NC1(c2cc(-c3ccn(C(F)F)n3)cc3ncccc23)CC1 [Compound 656, (S)-5-(Azetidin-2-ylmethoxy)-N-(1-(7-(1-(difluoromethyl)-1H-pyrazol-3-yl)quinolin-5-yl)cyclopropyl)-2-methylbenzamide] | > 7.00 | – |
| Cc1ccc(OCCN(C)C)cc1C(=O)NC1(c2ccccc2-c2ccccc2)CC1 [Compound 267, N-(1-([1,1′-Biphenyl]-2-yl)cyclopropyl)-5-(2-(dimethylamino)ethoxy)-2-methylbenzamide] | – | < 5.30 |
| Cc1ccc(C2CCNC2)cc1C(=O)NC1(c2cccc3ccccc23)CC1 (stereo not drawn) [Compound 413, 2-Methyl-N-(1-(naphthalen-1-yl)cyclopropyl)-5-(pyrrolidin-3-yl)benzamide] | – | > 7.00 |
| Cc1ccc(Nc2cn[nH]c2)cc1C(=O)N[C@H](C)c1cccc2ccccc12 [Compound 121, (R)-5-((1H-Pyrazol-4-yl)amino)-2-methyl-N-(1-(naphthalen-1-yl)ethyl)benzamide] | – | 5.30 to 6.00 |
| Cc1cc2ccn(C3CNC3)c2cc1C(=O)NC1(c2cccc3ccccc23)CC1 [Compound 218, 1-(Azetidin-3-yl)-5-methyl-N-(1-(naphthalen-1-yl)cyclopropyl)-1H-indole-6-carboxamide] | – | > 7.00 |
| Cc1cc2cc(CN)oc2cc1C(=O)NC1(c2cccc3ccccc23)CC1 [Compound 197, 2-(Aminomethyl)-5-methyl-N-(1-(naphthalen-1-yl)cyclopropyl)benzofuran-6-carboxamide] | – | > 7.00 |
| Cc1ccc(OCC(N)c2ccccc2)cc1C(=O)NC1(c2cccc3ccccc23)CC1 (stereo not drawn) [Compound 367, 5-(2-Amino-2-phenylethoxy)-2-methyl-N-(1-(naphthalen-1-yl)cyclopropyl)benzamide] | – | > 7.00 |
| Cc1ccc(OC[C@@H]2CCN2C)cc1C(=O)NC1(c2cccc3nc(O)ccc23)CC1 [Compound 545, (S)-N-(1-(2-Hydroxyquinolin-5-yl)cyclopropyl)-2-methyl-5-((1-methylazetidin-2-yl)methoxy)benzamide] | – | > 7.00 |
| Cc1cc2cn[nH]c2cc1C(=O)NC1(c2cccc3ccccc23)CC1 [Compound 176, 5-Methyl-N-(1-(naphthalen-1-yl)cyclopropyl)-1H-indazole-6-carboxamide] | – | 6.00 to 7.00 |
| Cc1cc2c(C)c[nH]c2cc1C(=O)NC1(c2cccc3ccccc23)CC1 [Compound 212, 3,5-Dimethyl-N-(1-(naphthalen-1-yl)cyclopropyl)-1H-indole-6-carboxamide] | – | 6.00 to 7.00 |
| Cc1ccc(OC[C@H]2CCCN2)cc1C(=O)NC1(c2cccc3ncccc23)CC1 [Compound 371, (R)-2-methyl-5-(pyrrolidin-2-ylmethoxy)-N-(1-(quinolin-5-yl)cyclopropyl)benzamide] | – | > 7.00 |
| Cc1ccc(O[C@@H]2CC[C@@H]2N)cc1C(=O)NC1(c2cccc3ccccc23)CC1 (racemic) [Compound 406, rac-5-((1S,2R)-2-Aminocyclobutoxy)-2-methyl-N-(1-(naphthalen-1-yl)cyclopropyl)benzamide] | – | > 7.00 |
| COCC(NC(=O)c1cc(N)ccc1C)c1cccc2ccccc12 (stereo not drawn) [Compound 118, 5-Amino-N-(2-methoxy-1-(naphthalen-1-yl)ethyl)-2-methylbenzamide] | – | < 5.30 |
| Cc1ccc(NC2CNC2)cc1C(=O)NC1(c2cccc(-c3cccs3)c2)CC1 [Compound 169, 5-(Azetidin-3-ylamino)-2-methyl-N-(1-(3-(thiophen-2-yl)phenyl)cyclopropyl)benzamide] | – | 6.00 to 7.00 |
